Measured values taken from EP0060077A1, “Beta-lactam antibiotics, their preparation and use” (BEECHAM GROUP PLC, priority 1981, dated 1982).
Where two headings read alike, the source gives them in different places.

How the values were obtained:
[1] = Tissue stability in human kidney homogenate (comparable test); type: in vitro ADME; conditions: relative to MM13902 as standard (1.0)
Protocol: (§3) A preparation of 2% mouse kidney homogenate was mixed with equal volumes of a 200 µg/ml solution of the antibiotic to be tested. The stability of the antibiotic at 37°C was studied by removal of aliquots and subjecting them to high pressure liquid chromatographic analysis. The values are given in figures relative to that obtained for MM13902 which is taken as a standard (1.0). Values greater than 1.0 reflect the fold increase in stability relative to MM13902.

[2] = Tissue stability in mouse kidney homogenate; type: in vitro ADME; conditions: 2% mouse kidney homogenate mixed with equal volume of 200 µg/ml antibiotic, 37°C, HPLC; relative to MM13902 as standard (1.0)
Protocol: as §3

S. typhimurium CT10 = test: MIC (Broth); type: cell-based; conditions: Salmonella enterica
Text: (§1) MIC DATA (Broth) For sodium (5RS,6RS)-3-[(Z)-2-carba- moylethenylthio)-4,4-dimethyl-6-[(1SR)-1-hydroxyethyl]-7-oxo-l-azabicyclo[3.2.0]hept-2-en-2-carboxylate (32)
(§2) MIC DATA (Broth) for sodium (5RS,6RS)-4,4-dimethyl-6- [(1SR)-1-hydroxyethyl]-3-(pyrimidin-2-ylsulphinyl)-7-oxo-1-azabicyclo[3.2.0]hept-2-ene-Z-carboxylate (27)

P. morganii 1580 = test: MIC (Broth); type: cell-based; conditions: Morganella morganii
Text: as §1, §2

C. freundii E8 = test: MIC (Broth); type: cell-based; conditions: Citrobacter freundii
Text: as §1, §2

S. aureus Russell = test: MIC (Broth); type: cell-based; conditions: Staphylococcus aureus
Text: as §1, §2

P. rettgeri Wm16 = test: MIC (Broth); type: cell-based; conditions: Providencia rettgeri
Text: as §1, §2

K. aerogenes A = test: MIC (Broth); type: cell-based; conditions: Klebsiella aerogenes
Text: as §1, §2

B. subtilis A = test: MIC (Broth); type: cell-based; conditions: Bacillus subtilis
Text: as §1, §2

P. vulgaris W091 = test: MIC (Broth); type: cell-based; conditions: Proteus vulgaris
Text: as §1, §2

P. mirabilis 977 = test: MIC (Broth); type: cell-based; conditions: Proteus mirabilis
Text: as §1, §2

S. aureus Oxford = test: MIC (Broth); type: cell-based; conditions: Staphylococcus aureus
Text: as §1, §2

S. sonnei MB11 1967 = test: MIC (Broth); type: cell-based; conditions: Shigella sonnei, MB111967
Text: as §1, §2

S. aureus 1517 = test: MIC (Broth); type: cell-based; conditions: Staphylococcus aureus
Text: as §1, §2

E. coli ESS = test: MIC (Broth); type: cell-based; conditions: Escherichia coli
Text: as §1, §2

E. cloacae N1 = test: MIC (Broth); type: cell-based; conditions: Enterobacter cloacae
Text: as §1

S. aureus MB9 = test: MIC (Broth); type: cell-based; conditions: Staphylococcus aureus
Text: as §1

E. coli E96 = test: MIC (Broth); type: cell-based; conditions: Escherichia coli
Text: as §1

K. aerogenes Ba95 = test: MIC (Broth); type: cell-based; conditions: Klebsiella aerogenes
Text: as §1

E. coli 0111 = test: MIC (Broth); type: cell-based; conditions: Escherichia coli
Text: as §1

E. cloacae T753 = test: MIC (Broth); type: cell-based; conditions: Enterobacter cloacae
Text: as §1

E. coli E8 = test: MIC (Broth); type: cell-based; conditions: Escherichia coli
Text: as §1

K. aerogenes T767 = test: MIC (Broth); type: cell-based; conditions: Klebsiella aerogenes
Text: as §1

S. pyogenes CN10 = test: MIC (Broth); type: cell-based; conditions: Streptococcus pyogenes
Text: as §1

S. pneumoniae CN 33 = test: MIC (Broth); type: cell-based; conditions: Streptococcus pneumoniae, CN33
Text: as §1

E. coli JT39 = test: MIC (Broth); type: cell-based; conditions: Escherichia coli
Text: as §1

E. cloacae N1 [T753] = test: MIC (Broth); type: cell-based; conditions: Enterobacter cloacae
Text: as §2

K. aeogenes BA 9J R+ = test: MIC (Broth); type: cell-based
Text: as §2

E. coli JT39 [E96] = test: MIC (Broth); type: cell-based; conditions: Escherichia coli
Text: as §2

E. coli JT410 C4 = test: MIC (Broth); type: cell-based; conditions: Escherichia coli, JT410C4
Text: as §2

Serratia marcescens US32 = test: MIC (Broth); type: cell-based
Text: as §2

E. coli 0111 [E8] = test: MIC (Broth); type: cell-based; conditions: Escherichia coli
Text: as §2

E. coli JT 2074 = test: MIC (Broth); type: cell-based; conditions: Escherichia coli, JT2074
Text: as §2

**Q.** What does the source list for `C[C@H](O)[C@@H]1C(=O)N2C(C(=O)[O-])=C(S/C=C\C(N)=O)C(C)(C)[C@@H]12.[Na+]` (racemic)?
**A.** Relative Stability [1]: 6.9; Relative Stability [2]: 10.8; MIC (S. typhimurium CT10; TYPHIMURIUM): 50 µg/mL; MIC (P. morganii 1580; 1580): 25 µg/mL; MIC (C. freundii E8; E8): 25 µg/mL; MIC (S. aureus Russell): 3.1 µg/mL; MIC (P. rettgeri Wm16; WM16): 25 µg/mL; MIC (K. aerogenes A): 6.2 µg/mL; MIC (B. subtilis A): 1.6 µg/mL; MIC (P. vulgaris W091; W091): 25 µg/mL; MIC (P. mirabilis 977; 977): 25 µg/mL; MIC (S. aureus Oxford): 6.2 µg/mL; MIC (S. sonnei MB11 1967): 25 µg/mL; MIC (S. aureus 1517; 1517): 25 µg/mL; MIC (E. coli ESS): 3.1 µg/mL; MIC (E. cloacae N1): 25 µg/mL; MIC (S. aureus MB9): 25 µg/mL; MIC (E. coli E96): 50 µg/mL; MIC (K. aerogenes Ba95): 50 µg/mL; MIC (E. coli 0111): 50 µg/mL; MIC (E. cloacae T753): 100 µg/mL; MIC (E. coli E8): 50 µg/mL; MIC (K. aerogenes T767): 50 µg/mL; MIC (S. pyogenes CN10): 6.2 µg/mL; MIC (S. pneumoniae CN 33): 50 µg/mL; MIC (E. coli JT39): 12.5 µg/mL

**Q.** What does the source list for `C[C@H](O)[C@@H]1C(=O)N2C(C(=O)[O-])=C([S+]([O-])c3ncccn3)C(C)(C)[C@@H]12.[Na+]` (mixture of isomers) [Example 22, Sodium (5RS,6RS)-4,4-dimethyl-6-((1SR)-1-hydroxyethyl]-3-(pyrimidin-2-ylsulphinyl)-7-oxo-1-azabicyclo(3.2.0]hept-2-en-2-carboxylate]?
**A.** MIC (E. cloacae N1 [T753]): 25 µg/mL; MIC (K. aeogenes BA 9J R+): 25 µg/mL; MIC (E. coli JT39 [E96]): 50 µg/mL; MIC (E. coli JT410 C4): 25 µg/mL; MIC (Serratia marcescens US32): 100 µg/mL; MIC (E. coli 0111 [E8]): 25 µg/mL; MIC (E. coli JT 2074): 25 µg/mL; MIC (S. typhimurium CT10; Broth, S. typhimurium CT10, read-out: MIC): 12.5 µg/mL; MIC (P. morganii 1580; Broth, P. morganii 1580, read-out: MIC): 25 µg/mL; MIC (C. freundii E8; Broth, C. freundii E8, read-out: MIC): 25 µg/mL; MIC (S. aureus Russell; Broth, S. aureus Russell, read-out: MIC): 1.6 µg/mL; MIC (P. rettgeri Wm16; Broth, P. rettgeri Wm16, read-out: MIC): 25 µg/mL; MIC (K. aerogenes A; Broth, K. aerogenes A, read-out: MIC): 50 µg/mL; MIC (B. subtilis A; Broth, B. subtilis A, read-out: MIC): 0.8 µg/mL; MIC (P. vulgaris W091; Broth, P. vulgaris W091, read-out: MIC): 6.2 µg/mL; MIC (P. mirabilis 977; Broth, P. mirabilis 977, read-out: MIC): 25 µg/mL; MIC (S. aureus Oxford; Broth, S. aureus Oxford, read-out: MIC): 0.8 µg/mL; MIC (S. sonnei MB11 1967; Broth, S. sonnei MB11 1967, read-out: MIC): 50 µg/mL; MIC (S. aureus 1517; Broth, S. aureus 1517, read-out: MIC): 25 µg/mL; MIC (E. coli ESS; Broth, E. coli ESS, read-out: MIC): 1.6 µg/mL

**Q.** With `CC(=O)N/C=C/SC1=C(C(=O)O)N2C(=O)[C@@H]([C@H](C)OS(=O)(=O)O)[C@H]2C1` [MM13902, reference compound] as the molecule, how does the “Relative Stability” value [1] read?
**A.** The value was 1.1.

**Q.** What about the “Relative Stability” value [2] of the same molecule?
**A.** Its value is 1.4.
